These are literature values, as cited in paper PMC8398847, “Isavuconazole: Thermodynamic Evaluation of Processes Sublimation, Dissolution and Partition in Pharmaceutically Relevant Media” (Molecules, 2021).

Values joined by “and” are separate entries in the source; they are usually repeats but may differ in a detail not shown here. Equal entries are not always repeated.

The conditions of the data set: 298.15 K, cited from earlier work; for sublimation Gibbs energy (kJ∙mol-1, Table S2) / sublimation enthalpy (first kJ∙mol-1 column, Table S2): bicalutamide cluster; for sublimation Gibbs energy (Table S1) / sublimation enthalpy (Table S1): IVZ cluster, ref Table S1 [1]-[16].

Take “2-phenylcarbamoyl-3-methylquinoxaline-N-oxide”: the “sublimation Gibbs energy (kJ∙mol-1, Table S2)” value is 69.2 kJ/mol and the “sublimation enthalpy (first kJ∙mol-1 column, Table S2)” value is 145.1 kJ/mol.

In the case of `CC(O)(c1ccccc1)c1ccccc1` [1,1-diphenylethanol], the “sublimation Gibbs energy (Table S1)” value was 9.35 kcal/mol; the “sublimation enthalpy (Table S1)” value was 25.1 kcal/mol; the “sublimation Gibbs energy (kJ∙mol-1, Table S2)” value was 39.1 kJ/mol; the “sublimation enthalpy (first kJ∙mol-1 column, Table S2)” value is 105 kJ/mol.

For `Fc1ccc(-n2cccc2)cc1` [1-(4-fluorophenyl)pyrrole], the “sublimation Gibbs energy (kJ∙mol-1, Table S2)” value is 25.4 kJ/mol and the “sublimation enthalpy (first kJ∙mol-1 column, Table S2)” value is 78.9 kJ/mol.

`CC(O)Cc1nsc(Nc2ccc(F)cc2)n1` (stereo not shown) [1-[5-(4-Fluoro-phenylamino)-[1,2,4]thiadiazol-3-yl]-propan-2-ol]: the “sublimation Gibbs energy (kJ∙mol-1, Table S2)” value is 59.1 kJ/mol and the “sublimation enthalpy (first kJ∙mol-1 column, Table S2)” value was 124.8 kJ/mol.

With `CC(C)(O)c1ccccc1` [1-methyl-1-phenylethanol], the “sublimation Gibbs energy (Table S1)” value was 5.26 kcal/mol; the “sublimation enthalpy (Table S1)” value was 19.7 kcal/mol; the “sublimation Gibbs energy (kJ∙mol-1, Table S2)” value was 22 kJ/mol; the “sublimation enthalpy (first kJ∙mol-1 column, Table S2)” value was 82.3 kJ/mol.

Take `CC(=O)Nc1ccccc1O` [2'-Hydroxyacetanilide]: the “sublimation Gibbs energy (kJ∙mol-1, Table S2)” value was 52.8 kJ/mol and the “sublimation enthalpy (first kJ∙mol-1 column, Table S2)” value was 121.8 kJ/mol.

For `Fc1ccccc1-c1ccccc1F` [2,2'-difluorobiphenyl], the “sublimation Gibbs energy (Table S1)” value was 7.72 kcal/mol; the “sublimation enthalpy (Table S1)” value is 22.7 kcal/mol; the “sublimation Gibbs energy (kJ∙mol-1, Table S2)” value was 32.3 kJ/mol; the “sublimation enthalpy (first kJ∙mol-1 column, Table S2)” value was 95 kJ/mol.

Turning to `CC(=O)Nc1ccccc1C(=O)O` [2-(acetylamino)-Benzoic acid], the “sublimation Gibbs energy (kJ∙mol-1, Table S2)” value was 54.4 kJ/mol and the “sublimation enthalpy (first kJ∙mol-1 column, Table S2)” value is 115.5 kJ/mol.

With `NC(=O)c1ccccc1F` [2-Fluorobenzamide], the “sublimation Gibbs energy (kJ∙mol-1, Table S2)” value is 35.8 kJ/mol and the “sublimation enthalpy (first kJ∙mol-1 column, Table S2)” value is 95.4 kJ/mol.

`N#Cc1ccc2ccccc2c1` [2-Naphthalenecarbonitrile]: the “sublimation Gibbs energy (Table S1)” value is 8.08 kcal/mol and the “sublimation enthalpy (Table S1)” value was 22 kcal/mol.

As for `O=C(O)c1ccccc1F` [2-fluorobenzoic acid], the “sublimation Gibbs energy (Table S1)” value is 8.48 kcal/mol; the “sublimation enthalpy (Table S1)” value is 22.6 kcal/mol; the “sublimation Gibbs energy (kJ∙mol-1, Table S2)” value was 35.5 kJ/mol; the “sublimation enthalpy (first kJ∙mol-1 column, Table S2)” value was 94.4 kJ/mol.

On to `CC(=O)Nc1cccc(O)c1` [3-Acetamidophenol], for which the “sublimation Gibbs energy (kJ∙mol-1, Table S2)” value is 56.4 kJ/mol and the “sublimation enthalpy (first kJ∙mol-1 column, Table S2)” value is 111 kJ/mol.

Take `NC(=O)c1cccc(F)c1` [3-Fluorobenzamide]: the “sublimation Gibbs energy (kJ∙mol-1, Table S2)” value is 42.5 kJ/mol and the “sublimation enthalpy (first kJ∙mol-1 column, Table S2)” value was 104.1 kJ/mol.

As for `N#Cc1cccc(F)c1` [3-Fluorobenzonitrile], the “sublimation Gibbs energy (Table S1)” value is 3.78 kcal/mol and the “sublimation enthalpy (Table S1)” value is 15.6 kcal/mol.

For `O=[N+]([O-])c1cccc(F)c1` [3-Fluoronitrobenzene], the “sublimation Gibbs energy (kJ∙mol-1, Table S2)” value was 17.1 kJ/mol and the “sublimation enthalpy (first kJ∙mol-1 column, Table S2)” value is 72.3 kJ/mol.

Consider `O=C(O)c1cccc(F)c1` [3-fluorobenzoic acid], for which the “sublimation Gibbs energy (Table S1)” value is 8.22 kcal/mol; the “sublimation enthalpy (Table S1)” value is 22.4 kcal/mol; the “sublimation Gibbs energy (kJ∙mol-1, Table S2)” value is 34.4 kJ/mol; the “sublimation enthalpy (first kJ∙mol-1 column, Table S2)” value was 93.6 kJ/mol.

Consider `Cc1ccccc1NC(=O)c1c(C)[n+]([O-])c2ccccc2[n+]1[O-]` [3-methyl-N-(2-methylphenyl)-2-quinoxalinecarboxamide-1,4-dioxide], for which the “sublimation Gibbs energy (kJ∙mol-1, Table S2)” value was 71.9 kJ/mol and the “sublimation enthalpy (first kJ∙mol-1 column, Table S2)” value was 154.8 kJ/mol.

For the molecule `CC(=O)Nc1ccc(Br)cc1` [4'-Bromoacetanilide], the “sublimation Gibbs energy (kJ∙mol-1, Table S2)” value was 51.2 kJ/mol and the “sublimation enthalpy (first kJ∙mol-1 column, Table S2)” value is 113.4 kJ/mol.

As to `CC(=O)Nc1ccc(Cl)cc1` [4'-Chloroacetanilide], the “sublimation Gibbs energy (kJ∙mol-1, Table S2)” value is 50.1 kJ/mol and the “sublimation enthalpy (first kJ∙mol-1 column, Table S2)” value was 113.8 kJ/mol.

Regarding `Fc1ccc(-c2ccc(F)cc2)cc1` [4,4'-difluorobiphenyl], the “sublimation Gibbs energy (Table S1)” value was 7.22 kcal/mol; the “sublimation enthalpy (Table S1)” value is 21.8 kcal/mol; the “sublimation Gibbs energy (kJ∙mol-1, Table S2)” value was 30.2 kJ/mol; the “sublimation enthalpy (first kJ∙mol-1 column, Table S2)” value is 91.2 kJ/mol.

On to `CNc1ccc(C(=O)O)cc1` [4-(methylamino)benzoic acid], for which the “sublimation Gibbs energy (kJ∙mol-1, Table S2)” value was 55.3 kJ/mol and the “sublimation enthalpy (first kJ∙mol-1 column, Table S2)” value is 123.9 kJ/mol.

Take `N#Cc1ccc(Br)cc1` [4-Bromobenzonitrile]: the “sublimation Gibbs energy (Table S1)” value was 6.81 kcal/mol and the “sublimation enthalpy (Table S1)” value was 19.3 kcal/mol.

In the case of `N#Cc1ccc(C(=O)O)cc1` [4-Cyanobenzoic acid], the “sublimation Gibbs energy (kJ∙mol-1, Table S2)” value was 50.7 kJ/mol and the “sublimation enthalpy (first kJ∙mol-1 column, Table S2)” value is 112.8 kJ/mol.

Consider `NC(=O)c1ccc(F)cc1` [4-Fluorobenzamide], for which the “sublimation Gibbs energy (kJ∙mol-1, Table S2)” value is 43.2 kJ/mol and the “sublimation enthalpy (first kJ∙mol-1 column, Table S2)” value is 102.8 kJ/mol.

`N#Cc1ccc(F)cc1` [4-Fluorobenzonitrile]: the “sublimation Gibbs energy (Table S1)” value is 4.21 kcal/mol and the “sublimation enthalpy (Table S1)” value was 16.2 kcal/mol.

Take `O=[N+]([O-])c1ccc(F)cc1` [4-Fluoronitrobenzene]: the “sublimation Gibbs energy (kJ∙mol-1, Table S2)” value is 18.9 kJ/mol and the “sublimation enthalpy (first kJ∙mol-1 column, Table S2)” value is 70.9 kJ/mol.

For the molecule `Oc1ccc(F)cc1` [4-Fluorophenol], the “sublimation Gibbs energy (Table S1)” value was 4.76 kcal/mol; the “sublimation enthalpy (Table S1)” value was 17.7 kcal/mol; the “sublimation Gibbs energy (kJ∙mol-1, Table S2)” value was 19.9 kJ/mol; the “sublimation enthalpy (first kJ∙mol-1 column, Table S2)” value was 74.1 kJ/mol.

In the case of `N#Cc1ccc(I)cc1` [4-Iodobenzonitrile], the “sublimation Gibbs energy (Table S1)” value is 7.84 kcal/mol and the “sublimation enthalpy (Table S1)” value is 21 kcal/mol.

Take `O=C(O)c1ccc(F)cc1` [4-fluorobenzoic acid]: the “sublimation Gibbs energy (Table S1)” value is 8.8 kcal/mol; the “sublimation enthalpy (Table S1)” value was 22.3 kcal/mol; the “sublimation Gibbs energy (kJ∙mol-1, Table S2)” value was 36.8 kJ/mol; the “sublimation enthalpy (first kJ∙mol-1 column, Table S2)” value was 93.1 kJ/mol.

`CC(N)=O` [Acetamide]: the “sublimation Gibbs energy (kJ∙mol-1, Table S2)” value is 40.5 kJ/mol and the “sublimation enthalpy (first kJ∙mol-1 column, Table S2)” value was 99.8 kJ/mol.

`CC(O)(CS(=O)(=O)c1ccc(F)cc1)C(=O)Nc1ccc(C#N)c(C(F)(F)F)c1` (stereo not shown) [Bicalutamide]: the “sublimation Gibbs energy (Table S1)” value is 15.2 kcal/mol; the “sublimation enthalpy (Table S1)” value was 29.8 kcal/mol; the “sublimation Gibbs energy (kJ∙mol-1, Table S2)” value is 63.7 kJ/mol; the “sublimation enthalpy (first kJ∙mol-1 column, Table S2)” value was 124.7 kJ/mol.

On to `O=C(O)c1cc(-c2ccc(F)cc2F)ccc1O` [Diflunisal (Form A), Diflunisal], for which the “sublimation Gibbs energy (kJ∙mol-1, Table S2)” value was 57.6 kJ/mol and the “sublimation enthalpy (first kJ∙mol-1 column, Table S2)” value is 120.1 kJ/mol.

On to `O=C(O)c1ccccc1Nc1cccc(C(F)(F)F)c1` [Flufenamic acid], for which the “sublimation Gibbs energy (kJ∙mol-1, Table S2)” value was 54.3 kJ/mol and the “sublimation enthalpy (first kJ∙mol-1 column, Table S2)” value was 121.2 kJ/mol.

Take `CC(C(=O)O)c1ccc(-c2ccccc2)c(F)c1` (stereo not shown) [Flurbiprofen]: the “sublimation Gibbs energy (Table S1)” value is 12.7 kcal/mol and the “sublimation enthalpy (Table S1)” value is 26.34 kcal/mol.

For `Cc1cccc(Nc2ccccc2C(=O)O)c1C` [Mefenamic Acid], the “sublimation Gibbs energy (kJ∙mol-1, Table S2)” value is 59.2 kJ/mol and the “sublimation enthalpy (first kJ∙mol-1 column, Table S2)” value is 136.3 kJ/mol.

`CC(=O)Nc1ccccc1C` [N-(2-methylphenyl)acetamide]: the “sublimation Gibbs energy (kJ∙mol-1, Table S2)” value is 40.9 kJ/mol and the “sublimation enthalpy (first kJ∙mol-1 column, Table S2)” value was 97.1 kJ/mol.

Consider `CC12CC3CC(C)(C1)CC(NS(=O)(=O)c1ccc(C(F)(F)F)cc1)(C3)C2` [N-(3,5-Dimethyl-adamantan-1-yl)-4-trifluoromethyl-benzenesulfonamide], for which the “sublimation Gibbs energy (kJ∙mol-1, Table S2)” value was 49.6 kJ/mol and the “sublimation enthalpy (first kJ∙mol-1 column, Table S2)” value is 107.7 kJ/mol.

`CC(=O)Nc1ccc(C)cc1` [N-(4-methylphenyl)acetamide]: the “sublimation Gibbs energy (kJ∙mol-1, Table S2)” value is 44.5 kJ/mol and the “sublimation enthalpy (first kJ∙mol-1 column, Table S2)” value is 99 kJ/mol.

Turning to `CC(=O)Nc1cccc2ccccc12` [N-acetyl-1-naphthylamine], the “sublimation Gibbs energy (kJ∙mol-1, Table S2)” value was 47.9 kJ/mol; the “sublimation enthalpy (first kJ∙mol-1 column, Table S2)” value was 94 kJ/mol and 94.1 kJ/mol.

Consider `c1ccc(CNc2ccccc2)cc1` [N-phenyl benzylamine], for which the “sublimation Gibbs energy (kJ∙mol-1, Table S2)” value was 36.9 kJ/mol and the “sublimation enthalpy (first kJ∙mol-1 column, Table S2)” value was 104.4 kJ/mol.

For `O=C(O)c1ccccc1Nc1ccccc1` [N-phenyl-Anthranilic acid], the “sublimation Gibbs energy (kJ∙mol-1, Table S2)” value is 58.9 kJ/mol and the “sublimation enthalpy (first kJ∙mol-1 column, Table S2)” value was 126 kJ/mol.

On to `O=C(O)c1cccnc1Nc1cccc(C(F)(F)F)c1` [Niflumic acid], for which the “sublimation Gibbs energy (kJ∙mol-1, Table S2)” value is 61.3 kJ/mol and the “sublimation enthalpy (first kJ∙mol-1 column, Table S2)” value is 130.2 kJ/mol.

As to `CC(=O)Nc1ccc(O)cc1` [Paracetamol], the “sublimation Gibbs energy (kJ∙mol-1, Table S2)” value was 60 kJ/mol and the “sublimation enthalpy (first kJ∙mol-1 column, Table S2)” value is 117.9 kJ/mol.

With `CC(=O)NCC(=O)Nc1ccccc1` [acetylglycine anilide], the “sublimation Gibbs energy (kJ∙mol-1, Table S2)” value is 59.9 kJ/mol and the “sublimation enthalpy (first kJ∙mol-1 column, Table S2)” value is 125.4 kJ/mol.
